# Measured values from ChEMBL document CHEMBL1155947, “Discovery of a novel series of benzoic acid derivatives as potent and selective human beta3 adrenergic receptor agonists with good oral bioavailability. 3. Phenylethanolaminotetraline (PEAT) skeleton containing biphenyl or biphenyl ether moiety” (J Med Chem, 2008).
# What was measured:
# Canis familiaris [1] = experiment: Ratio of AUC for drug to AUC for 4-((7S)-7-{[(2R)-2-(3-Chlorophenyl)-2-hydroxyethyl]amino}-5,6,7,8-tetrahydro-2-naphthalenyl)benzoic acid hydrochloride in dog at 0.1 or 0.20 mg/kg, po by cassette dosing assay; assay type: ADME, organism-based, Canis lupus familiaris; set-up: dose 0.2 mg/kg, route oral; conditions: in vivo, 0.2 mg/kg
# [2] = Oral bioavailability in dog at 0.1 mg/kg by cassette assay; assay type: ADME, organism-based, Canis lupus familiaris; conditions: in vivo
# Canis familiaris [3] = experiment: Ratio of Cmax for drug to Cmax for 4-((7S)-7-{[(2R)-2-(3-Chlorophenyl)-2-hydroxyethyl]amino}-5,6,7,8-tetrahydro-2-naphthalenyl)benzoic acid hydrochloride in dog at 0.1 or 0.20 mg/kg, po by cassette dosing assay; assay type: ADME, organism-based, Canis lupus familiaris; set-up: dose 0.2 mg/kg, route oral; conditions: in vivo, 0.2 mg/kg
# [4] = Oral bioavailability in monkey at 0.32 mg/kg by cassette assay; assay type: ADME, organism-based, Macaca mulatta; conditions: rhesus monkey, in vivo
# [5] = Terminal half life in monkey at 0.32 mg/kg, iv by cassette assay; assay type: ADME, organism-based, Macaca mulatta; set-up: dose 0.32 mg/kg, route intravenous; conditions: rhesus monkey, in vivo
# [6] = AUC (0 to 24 hrs) in rat at 0.5 mg/kg, po by cassette assay; assay type: ADME, organism-based; set-up: time < 24 hr, dose 0.5 mg/kg, route oral; conditions: plasma
# Canis familiaris [7] = experiment: Inhibition of carbachol-induced increase of intravesical pressure in Beagle dog OAB model at 32 ug/kg,; assay type: functional; conditions: Canis lupus familiaris
# Homo sapiens = species on record: Homo sapiens; experiment: Ratio of EC50 for human cloned beta-1 adrenergic receptor to EC50 for human cloned beta3 adrenergic receptor
# [8] = target: Beta-2 adrenergic receptor (Homo sapiens, UniProt P07550); experiment: Agonist activity at human beta2 adrenergic receptor expressed in CHO cells assessed as cAMP accumulation; assay type: functional, cell-based
# Beta-2 adrenergic receptor, sequence (P07550 whole entry): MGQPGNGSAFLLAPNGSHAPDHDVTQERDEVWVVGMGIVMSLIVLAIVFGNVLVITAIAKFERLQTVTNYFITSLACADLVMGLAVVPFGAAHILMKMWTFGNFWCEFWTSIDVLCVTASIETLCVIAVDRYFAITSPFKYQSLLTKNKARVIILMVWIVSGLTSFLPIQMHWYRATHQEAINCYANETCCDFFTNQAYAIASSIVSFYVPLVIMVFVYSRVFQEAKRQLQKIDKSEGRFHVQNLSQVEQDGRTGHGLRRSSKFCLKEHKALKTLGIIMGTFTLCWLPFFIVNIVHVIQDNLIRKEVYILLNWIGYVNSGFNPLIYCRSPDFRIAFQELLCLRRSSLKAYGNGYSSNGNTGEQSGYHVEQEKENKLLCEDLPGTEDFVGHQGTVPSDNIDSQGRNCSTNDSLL
# [9] = Oral bioavailability in rat at 0.50 mg/kg by cassette assay; assay type: ADME, organism-based; conditions: in vivo, 0.5 mg/kg
# [10] = target: Beta-3 adrenergic receptor (Homo sapiens, UniProt P13945); experiment: Agonist activity at human cloned beta3 adrenergic receptor expressed in CHO cells assessed as cAMP accumulation; assay type: functional, cell-based
# Beta-3 adrenergic receptor (Homo sapiens, UniProt P13945), sequence (P13945 whole entry): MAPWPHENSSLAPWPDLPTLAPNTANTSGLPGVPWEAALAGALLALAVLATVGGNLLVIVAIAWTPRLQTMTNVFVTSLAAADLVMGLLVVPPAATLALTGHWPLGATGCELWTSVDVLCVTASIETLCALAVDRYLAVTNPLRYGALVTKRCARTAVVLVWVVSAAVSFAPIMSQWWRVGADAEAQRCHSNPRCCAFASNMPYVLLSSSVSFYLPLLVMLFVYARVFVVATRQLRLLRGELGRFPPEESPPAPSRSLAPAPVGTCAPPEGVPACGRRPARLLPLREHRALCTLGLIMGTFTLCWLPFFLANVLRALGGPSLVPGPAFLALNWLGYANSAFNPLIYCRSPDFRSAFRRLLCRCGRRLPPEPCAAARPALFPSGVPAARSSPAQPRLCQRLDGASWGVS
# [11] = Protein binding in Beagle dog serum at 32 ug/kg, iv; assay type: ADME, organism-based, Canis lupus familiaris; conditions: 0.032 mg/kg, read-out: PB (converted)
# [12] = Terminal half life in dog at 0.1 mg/kg, iv by cassette assay; assay type: ADME, organism-based, Canis lupus familiaris; set-up: dose 0.1 mg/kg, route intravenous; conditions: in vivo
# [13] = Terminal half life in rat at 0.50 mg/kg, iv by cassette assay; assay type: ADME, organism-based; set-up: dose 0.5 mg/kg, route intravenous; conditions: in vivo, 0.5 mg/kg
# [14] = Selectivity for human beta3 adrenergic receptor over dog beta3 adrenergic receptor
# [15] = AUC (0 to 24 hrs) in dog at 0.2 mg/kg, po by cassette assay; assay type: ADME, organism-based, Canis lupus familiaris; set-up: time < 24 hr, dose 0.2 mg/kg, route oral; conditions: plasma
# [16] = Cmax in rat at 0.5 mg/kg, po by cassette assay; assay type: ADME, organism-based; set-up: dose 0.5 mg/kg, route oral; conditions: in vivo
# [17] = Total clearance in rat at 0.50 mg/kg, iv by cassette assay; assay type: ADME, organism-based; set-up: dose 0.5 mg/kg, route intravenous; conditions: in vivo, 0.5 mg/kg
# [18] = target: Beta-1 adrenergic receptor (Homo sapiens, UniProt P08588)
# Beta-1 adrenergic receptor, sequence (P08588 whole entry): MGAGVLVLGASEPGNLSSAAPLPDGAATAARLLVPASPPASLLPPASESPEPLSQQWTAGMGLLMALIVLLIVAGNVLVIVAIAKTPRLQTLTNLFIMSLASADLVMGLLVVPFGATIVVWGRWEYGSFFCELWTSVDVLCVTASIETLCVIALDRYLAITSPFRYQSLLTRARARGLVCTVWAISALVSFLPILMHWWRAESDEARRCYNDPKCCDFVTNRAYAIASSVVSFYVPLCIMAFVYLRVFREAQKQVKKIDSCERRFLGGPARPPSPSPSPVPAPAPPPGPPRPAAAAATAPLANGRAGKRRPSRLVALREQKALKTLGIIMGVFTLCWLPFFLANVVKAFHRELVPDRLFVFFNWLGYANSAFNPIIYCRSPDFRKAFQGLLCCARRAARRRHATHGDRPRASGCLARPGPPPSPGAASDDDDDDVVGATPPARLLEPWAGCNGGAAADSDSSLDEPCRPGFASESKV
# Description: Agonist activity at human cloned beta-1 adrenergic receptor expressed in CHO cells assessed as cAMP accumulation
# [19] = Total clearance in monkey at 0.32 mg/kg, iv by cassette assay; assay type: ADME, organism-based, Macaca mulatta; set-up: dose 0.32 mg/kg, route intravenous; conditions: rhesus monkey, in vivo
# [20] = Cmax in dog at 0.2 mg/kg, po by cassette assay; assay type: ADME, organism-based, Canis lupus familiaris; set-up: dose 0.2 mg/kg, route oral; conditions: in vivo
# [21] = Cmax in monkey at 0.32 mg/kg, po; assay type: ADME, organism-based, Macaca mulatta; set-up: dose 0.32 mg/kg, route oral; conditions: rhesus monkey, in vivo
# [22] = AUC (0 to 24 hrs) in monkey at 0.32 mg/kg, po; assay type: ADME, organism-based, Macaca mulatta; set-up: time < 24 hr, dose 0.32 mg/kg, route oral; conditions: rhesus monkey, plasma
# [23] = Total clearance in dog at 0.1 mg/kg, iv by cassette assay; assay type: ADME, organism-based, Canis lupus familiaris; set-up: dose 0.1 mg/kg, route intravenous; conditions: in vivo
# [24] = target: Beta-3 adrenergic receptor (Canis lupus familiaris, UniProt O02662); experiment: Agonist activity at dog beta3 adrenergic receptor expressed in CHO cells assessed as cAMP accumulation; assay type: functional, cell-based
# Beta-3 adrenergic receptor (Canis lupus familiaris, UniProt O02662), sequence (O02662 whole entry): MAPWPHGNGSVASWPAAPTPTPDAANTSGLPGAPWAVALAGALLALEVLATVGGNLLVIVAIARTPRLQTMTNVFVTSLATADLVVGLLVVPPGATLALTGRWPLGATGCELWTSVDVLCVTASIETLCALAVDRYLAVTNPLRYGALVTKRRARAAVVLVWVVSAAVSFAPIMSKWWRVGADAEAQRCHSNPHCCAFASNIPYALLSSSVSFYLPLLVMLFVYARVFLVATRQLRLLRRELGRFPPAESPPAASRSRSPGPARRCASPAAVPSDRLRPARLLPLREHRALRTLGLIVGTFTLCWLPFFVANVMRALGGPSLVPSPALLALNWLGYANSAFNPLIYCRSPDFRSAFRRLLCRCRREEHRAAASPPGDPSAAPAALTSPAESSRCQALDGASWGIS
# [25] = Oral bioavailability in rat at 0.32 mg/kg; assay type: ADME, organism-based; conditions: in vivo
# [26] = Oral bioavailability in dog at 0.12 mg/kg by cassette assay; assay type: ADME, organism-based, Canis lupus familiaris; conditions: in vivo
# [27] = AUC (0 to 24 hrs) in rat at 1.0 mg/kg, po; assay type: ADME, organism-based; set-up: time < 24 hr, dose 1 mg/kg, route oral; conditions: plasma
# [28] = Terminal half life in dog at 0.12 mg/kg, iv by cassette assay; assay type: ADME, organism-based, Canis lupus familiaris; set-up: dose 0.12 mg/kg, route intravenous; conditions: in vivo
# [29] = Terminal half life in rat at 0.32 mg/kg, iv; assay type: ADME, organism-based; set-up: dose 0.32 mg/kg, route intravenous; conditions: in vivo
# [30] = Total clearance in rat at 0.32 mg/kg, iv; assay type: ADME, organism-based; set-up: dose 0.32 mg/kg, route intravenous; conditions: in vivo
# [31] = Cmax in rat at 1.0 mg/kg, po; assay type: ADME, organism-based; set-up: dose 1 mg/kg, route oral; conditions: in vivo
# [32] = Total clearance in dog at 0.12 mg/kg, iv by cassette assay; assay type: ADME, organism-based, Canis lupus familiaris; set-up: dose 0.12 mg/kg, route intravenous; conditions: in vivo
# Canis familiaris [33] = experiment: Ratio of Cmax for drug to Cmax for 3-[((7S)-7-{[(2R)-2-(3-Chlorophenyl)-2-hydroxyethyl]amino}-5,6,7,8-tetrahydro-2-naphthalenyl)oxy]benzoic acid hydrochloride in dog at 0.1 or 0.20 mg/kg, po by cassette dosing assay; assay type: ADME, organism-based, Canis lupus familiaris; set-up: dose 0.2 mg/kg, route oral; conditions: in vivo, 0.2 mg/kg
# [34] = Bioavailability in dog at 0.1 mg/mL, iv by cassette assay; assay type: ADME, organism-based, Canis lupus familiaris; conditions: in vivo
# Canis familiaris [35] = experiment: Ratio of AUC for drug to AUC for 3-[((7S)-7-{[(2R)-2-(3-Chlorophenyl)-2-hydroxyethyl]amino}-5,6,7,8-tetrahydro-2-naphthalenyl)oxy]benzoic acid hydrochloride in dog at 0.1 or 0.20 mg/kg, po by cassette dosing assay; assay type: ADME, organism-based, Canis lupus familiaris; set-up: dose 0.2 mg/kg, route oral; conditions: in vivo, 0.2 mg/kg
# [36] = AUC (0 to 24 hrs) in dog at 0.32 mg/kg, po by cassette assay; assay type: ADME, organism-based, Canis lupus familiaris; set-up: time < 24 hr, dose 0.32 mg/kg, route oral; conditions: plasma
# [37] = Cmax in dog at 0.32 mg/kg, po by cassette assay; assay type: ADME, organism-based, Canis lupus familiaris; set-up: dose 0.32 mg/kg, route oral; conditions: in vivo
# [38] = Total clearance in dog at 0.1 mg/mL, iv by cassette assay; assay type: ADME, organism-based, Canis lupus familiaris; conditions: in vivo
# [39] = Terminal half life in dog at 0.1 mg/mL, iv by cassette assay; assay type: ADME, organism-based, Canis lupus familiaris; conditions: in vivo
compound,measurement,setting,value
O=C(O)c1ccc(-c2ccc3c(c2)C[C@@H](NC[C@H](O)c2ccc(Cl)cc2)CC3)cc1,Ratio AUC,Canis familiaris [1],1.25
same,bioavailability,[2],> 95%
same,Ratio,Canis familiaris [3],0.71
same,bioavailability,[4],81.7%
same,half-life,[5],7.7 h
same,AUC(0-t) at 24 h,[6],470 ng·h/mL
same,inhibition in vivo at 0.032 mg/kg,Canis familiaris [7],33%
same,Ratio EC50,Homo sapiens,2410
same,EC50,[8],> 1000 nM
same,bioavailability,[9],63.4%
same,EC50,[10],0.38 nM
same,fraction unbound,[11],0.03
same,half-life,[12],14.3 h
same,half-life,[13],13.6 h
same,Selectivity ratio,[14],65.8
same,AUC(0-t) at 24 h,[15],1980 ng·h/mL
same,Cmax,[16],65 ng/mL
same,clearance,[17],11.4 mL/min/kg
same,EC50,[18],917 nM
same,clearance,[19],6.7 mL/min/kg
same,Cmax,[20],113 ng/mL
same,Cmax,[21],91.2 ng/mL
same,AUC(0-t) at 24 h,[22],722 ng·h/mL
same,clearance,[23],1.7 mL/min/kg
same,EC50,[24],25 nM
O=C(O)COc1ccc2c(c1)C[C@@H](NC[C@H](O)c1cccc(Cl)c1)CC2,bioavailability,[25],60%
same,bioavailability,[26],83.2%
same,AUC(0-t) at 24 h,[27],177 ng·h/mL
same,Ratio EC50,Homo sapiens,38
same,EC50,[8],> 10000 nM
same,half-life,[28],3.8 h
same,EC50,[10],39 nM
same,half-life,[29],1.18 h
same,AUC(0-t) at 24 h,[15],902 ng·h/mL
same,EC50,[18],1500 nM
same,clearance,[30],52.6 mL/min/kg
same,Cmax,[31],28.1 ng/mL
same,Cmax,[20],92.5 ng/mL
same,clearance,[32],3 mL/min/kg
O=C(O)c1cccc(Oc2ccc3c(c2)C[C@@H](NC[C@H](O)c2cccc(Cl)c2)CC3)c1,Ratio,Canis familiaris [33],1
same,bioavailability,[34],81%
same,Ratio EC50,Homo sapiens,> 138
same,EC50,[8],> 1000 nM
same,Ratio AUC,Canis familiaris [35],1
same,AUC(0-t) at 24 h,[36],2000 ng·h/mL
same,EC50,[10],7.1 nM
same,EC50,[18],> 1000 nM
same,Cmax,[37],151 ng/mL
same,clearance,[38],2.4 mL/min/kg
same,half-life,[39],7.9 h
